2 molecules from PMC2690590, “Functional recombinant MHC class II molecules and high-throughput peptide-binding assays” (Immunome Research, 2009) can be followed below.

Where no end group is shown, it is not given here.

The target in test [1] is T1, DR3 (DRA*0101/DRB1*0301) (Homo sapiens, UniProt P01903+P01911, A100K/A102G/A103R/A169T/F55Y/I96L/K41T/L162R/M171V/P40S/Q125H/Q178H/Q39Y/R42S/S66N/T106N/T262R/W38E/Y61H).
T1 construct: DRA*01011-181LZFos; DRB1*03011-190LZJunBSP; made in house
Nature of the test: Direct LOCI peptide-MHC-II binding assay, DR3.

For test [2], the target named is T2, DR4 (DRA*0101/DRB1*0401) (Homo sapiens, UniProt P01903+P01911, A100K/A169T/F76Y/I96L/K127E/L162R/M171V/N62H/P40V/Q125Y/R42H/S133A/S149N/S66Y/V115G/V209L/W38E).
T2 construct: DRA*01011-181LZFos; DRB1*04011-190LZJunBSP; made in house
As to the kind of experiment: Direct LOCI peptide-MHC-II binding assay, DR4.

For test [3], the target named is T3, DRB1*0813 (DRA*0101/DRB1*0813) (Homo sapiens, UniProt P01903+P01911, A100R/A103L/A169T/F76Y/H45Y/I96L/K41T/L162R/M171V/P40S/Q125H/Q178H/Q39Y/Q99D/R218S/R42G/S66Y/V115G/W38E).
T3 construct: DRA*01011-181LZFos; DRB1*08131-190LZJunBSP; made in house
As to the kind of experiment: Direct LOCI peptide-MHC-II binding assay, DRB1*0813.

The target in test [4] is DP401 (DPA1*0103/DPB1*0401) (Homo sapiens, UniProt P04440+P20036). Nature of the test: Direct LOCI peptide-MHC-II binding assay, DP401.
Sequence of DP401 (DPA1*0103/DPB1*0401) (P20036 with tags, fused parts or gaps C154S): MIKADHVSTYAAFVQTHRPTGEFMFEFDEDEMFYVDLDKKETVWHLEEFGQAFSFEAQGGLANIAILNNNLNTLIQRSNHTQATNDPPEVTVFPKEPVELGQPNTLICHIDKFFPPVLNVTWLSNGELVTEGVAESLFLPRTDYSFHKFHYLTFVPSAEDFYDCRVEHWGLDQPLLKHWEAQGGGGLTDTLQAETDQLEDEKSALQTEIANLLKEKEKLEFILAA
Sequence of DP401 (DPA1*0103/DPB1*0401) (as listed by the source): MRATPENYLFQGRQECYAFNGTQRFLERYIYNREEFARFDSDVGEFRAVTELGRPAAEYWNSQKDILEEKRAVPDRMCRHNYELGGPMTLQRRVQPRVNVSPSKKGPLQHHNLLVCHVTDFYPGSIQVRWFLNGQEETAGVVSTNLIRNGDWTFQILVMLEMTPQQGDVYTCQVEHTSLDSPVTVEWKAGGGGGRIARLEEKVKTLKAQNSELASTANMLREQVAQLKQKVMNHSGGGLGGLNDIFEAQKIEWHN
The target in test [5] is T4, DRB3*0301 (DRA*0101/DRB3*0301) (Homo sapiens, UniProt P01903+P79483, A169T/A212P/D57E/G115V/L67V/Q178H/R103Q/R40L/Y55F).
T4 construct: DRA*01011-181LZFos; DRB3*03011-190LZJunBSP; made in house
Nature of the test: Direct LOCI peptide-MHC-II binding assay, DRB3*0301.

For `CSCC[C@H](NC(=O)[C@@H](N)Cc1ccccc1)C(=O)N[C@@H](CO)C(=O)N[C@@H](CCCNC(=N)N)C(=O)N[C@@H](CCCCN)C(=O)N[C@@H](CC(C)C)C(=O)N[C@@H](Cc1c[nH]cn1)C(=O)N[C@@H](CCCNC(=N)N)C(=O)N[C@@H](Cc1ccc(O)cc1)C(=O)O` [Hantaan], the Kd was 0.279 µM in test [1], more than 5 µM in test [2], 0.021 µM in test [3] and more than 5 µM in test [4].
Turning to WMARRHAER [Brucella], the dissociation constant Kd in test [1], in test [2], in test [5] and in test [4] was more than 5 µM throughout.
